Results as given in BindingDB's records for patent US10167299 (Shanghai Institute of Material Medica, Chinese Academy of …, 2019).

Target: C-C chemokine receptor type 5 (Homo sapiens, UniProt P51681)
Test: Calcium Flux Inhibition Experiment
Protocol: 1. […] The medium in each well into which cells were innoculated was removed and 40 μl/well of freshly prepared dye was added. […] The dye was removed. […] FlexStation II was used for detection.

C-C chemokine receptor type 5, sequence (P51681 whole entry): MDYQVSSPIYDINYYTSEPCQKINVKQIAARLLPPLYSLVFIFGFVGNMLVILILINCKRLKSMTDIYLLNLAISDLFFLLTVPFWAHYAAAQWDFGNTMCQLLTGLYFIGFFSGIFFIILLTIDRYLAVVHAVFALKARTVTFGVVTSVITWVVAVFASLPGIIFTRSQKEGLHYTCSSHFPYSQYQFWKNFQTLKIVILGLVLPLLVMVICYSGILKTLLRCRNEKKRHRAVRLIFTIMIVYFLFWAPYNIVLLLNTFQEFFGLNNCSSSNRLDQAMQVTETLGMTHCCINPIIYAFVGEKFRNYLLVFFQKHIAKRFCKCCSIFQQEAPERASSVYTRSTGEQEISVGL

## CC(=O)N[C@@H](CCN1C2CCC1CC(n1c(C)nnc1C(C)C)C2)c1csc2ccccc12 (stereo partly specified) [US10167299, Example 28]
  IC50: 68 nM
